Laboratory results published in US20250171438A1 (Agios Pharmaceuticals, Inc., priority 2022, published 2025).

What follows are compounds tested against T1, human PAH with the R408W mutation (Homo sapiens, UniProt P00439, R408W) (assay: Cell Based Phenylalanine Flux Assay). Settings: A375 cells expressing human R408W PAH; 24 hrs compound incubation; 13C-Tyrosine by LC-MS; average where tested multiple times; read-out: AC50.
T1 construct: expressed in transfected cells
T1 sequence (P00439 1-452 R408W): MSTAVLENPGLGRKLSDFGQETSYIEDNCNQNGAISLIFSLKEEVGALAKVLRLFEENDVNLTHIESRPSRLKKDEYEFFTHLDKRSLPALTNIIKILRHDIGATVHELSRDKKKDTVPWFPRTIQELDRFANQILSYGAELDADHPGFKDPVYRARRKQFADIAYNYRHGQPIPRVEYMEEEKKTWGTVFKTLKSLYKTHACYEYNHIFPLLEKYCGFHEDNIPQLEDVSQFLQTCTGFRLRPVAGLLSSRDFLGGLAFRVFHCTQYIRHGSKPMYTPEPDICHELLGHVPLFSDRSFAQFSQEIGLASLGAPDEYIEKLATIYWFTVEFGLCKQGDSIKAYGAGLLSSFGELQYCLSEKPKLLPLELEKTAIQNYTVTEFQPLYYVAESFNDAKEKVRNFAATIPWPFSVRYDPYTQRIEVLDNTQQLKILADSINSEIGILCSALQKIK
Parameters: scale not given here

Question: For Cc1nc(-c2ccccc2)c(C(=O)N2CCc3[nH]cnc3[C@H]2c2nc3ccccc3s2)o1 [Example 1520], which AC50 is on record?
Answer: The AC50 was 500 to 1000 nM.

Question: Which AC50 does the source give for O=C(CCc1nccs1)N1CCc2nc[nH]c2[C@@H]1c1nc2ccccc2s1 [Example 1004, (R)-1-(4-(benzo[d]thiazol-2-yl)-6,7-dihydro-3H-imidazo[4,5-c]pyridin-5(4H)-yl)-3-(thiazol-2-yl)propan-1-one] here?
Answer: The AC50 was 1000 to 5000 nM.

Question: O=C(c1cncs1)N1CCc2[nH]cnc2[C@H]1c1ncc(-c2ccccc2)s1 [Example 2145] was tested. Which AC50 did it give?
Answer: Its AC50 is < 500 nM.

Question: O=C(CCc1nccs1)N1CCc2[nH]cnc2[C@H]1c1nc2ccc(F)cc2s1 [Example 1029, (S)-1-(4-(6-fluorobenzo[d]thiazol-2-yl)-6,7-dihydro-1H-imidazo[4,5-c]pyridin-5(4H)-yl)-3-(thiazol-2-yl)propan-1-one] was tested. Which AC50 did it give?
Answer: The AC50 was 500 to 1000 nM.

Question: O=C(c1cnn2cc(Br)ccc12)N1CCc2[nH]cnc2[C@@H]1c1nc2c(F)cccc2s1 [Example 1236, (R)-(6-bromopyrazolo[1,5-a]pyridin-3-yl)(4-(4-fluorobenzo[d]thiazol-2-yl)-6,7-dihydro-1H-imidazo[4,5-c]pyridin-5(4H)-yl)methanone] was tested. Which AC50 did it give?
Answer: Its AC50 is 1000 to 5000 nM.

Question: How did the AC50 turn out when Cc1ncoc1C(=O)N1C[C@@H](C)c2[nH]cnc2[C@@H]1c1nc2ccccc2s1 [Example 1548, ((4R,7R)-4-(benzo[d]thiazol-2-yl)-7-methyl-6,7-dihydro-1H-imidazo[4,5-c]pyridin-5(4H)-yl)(4-methyloxazol-5-yl)methanone] was run?
Answer: Its AC50 is > 5000 nM.

Question: For Cc1cnc(CCC(=O)N2CCc3[nH]cnc3[C@H]2c2nc3ccccc3s2)s1 [Example 1031], which AC50 is on record?
Answer: The AC50 was 500 to 1000 nM.

Question: Cc1cccc2nc([C@@H]3c4nc[nH]c4CCN3C(=O)c3cncs3)sc12 [Example 1316, (S)-(4-(7-methylbenzo[d]thiazol-2-yl)-6,7-dihydro-1H-imidazo[4,5-c]pyridin-5(4H)-yl)(thiazol-5-yl)methanone] was tested. Which AC50 did it give?
Answer: The AC50 was < 500 nM.

Question: O=C(c1nnc(-c2ccc(F)c(F)c2)o1)N1CCc2[nH]cnc2[C@@H]1c1nc2c(F)cccc2s1 [Example 1877, (R)-(5-(3,4-difluorophenyl)-1,3,4-oxadiazol-2-yl)(4-(4-fluorobenzo[d]thiazol-2-yl)-6,7-dihydro-1H-imidazo[4,5-c]pyridin-5(4H)-yl)methanone] was tested. Which AC50 did it give?
Answer: Its AC50 is 1000 to 5000 nM.

Question: COc1cccc(CCCC(=O)N2CCc3[nH]cnc3[C@H]2c2nc3ccccc3s2)c1 [Example 1013] was tested. Which AC50 did it give?
Answer: The AC50 was 500 to 1000 nM.

Question: How did the AC50 turn out when C[C@@H]1CN(C(=O)c2nnc(-c3cnn(C)c3)o2)[C@H](c2nc3ccccc3s2)c2nc[nH]c21 [Example 1750, ((4S,7R)-4-(benzo[d]thiazol-2-yl)-7-methyl-6,7-dihydro-1H-imidazo[4,5-c]pyridin-5(4H)-yl)(5-(1-methyl-1H-pyrazol-4-yl)-1,3,4-oxadiazol-2-yl)methanone] was run?
Answer: The AC50 was 500 to 1000 nM.

Question: Which AC50 does the source give for N#Cc1nc(N2CCOCC2)oc1C(=O)N1CCc2[nH]cnc2[C@@H]1c1nc2ccccc2s1 [Example 1706, (R)-5-(4-(benzo[d]thiazol-2-yl)-4,5,6,7-tetrahydro-1H-imidazo[4,5-c]pyridine-5-carbonyl)-2-morpholinooxazole-4-carbonitrile] here?
Answer: The AC50 was > 5000 nM.

Same assay, conditions: A375 cells expressing human R408W PAH; 24 hrs with compound; 13C-Tyrosine by LC-MS; average where tested multiple times

Question: With O=C(c1nnc(CCCNC2CC2)o1)N1CCc2[nH]cnc2C1c1nc2ccccc2s1 (stereo not drawn) as the compound, how does the AC50 read?
Answer: The AC50 was “E, E”.

Same assay, conditions: A375 cells expressing human R408W PAH; 24 hrs with compound; 13C-Tyrosine by LC-MS; average where tested multiple times; read-out: AC50

Question: How did the AC50 turn out when Cc1nc(N2CCOCC2)oc1C(=O)N1CCCc2[nH]cnc2C1c1nc2ccccc2s1 (stereo not drawn) was run?
Answer: Its AC50 is > 5000 nM.

Question: Which AC50 does the source give for O=C(c1nnc(C2CC(F)(F)C2)o1)N1CCc2[nH]cnc2C1c1nc2ccccc2s1 (stereo not drawn) here?
Answer: Its AC50 is 1000 to 5000 nM.

Question: With O=C(c1cnco1)N1CCCc2[nH]cnc2C1c1nc2ccccc2s1 (stereo not drawn) as the compound, how does the AC50 read?
Answer: The AC50 was > 5000 nM.

Question: O=C(c1cnn2ccccc12)N1CCc2[nH]cnc2C1c1nc2ccc(Br)cc2s1 (stereo not drawn) was tested. Which AC50 did it give?
Answer: Its AC50 is 1000 to 5000 nM.

Question: With Cc1nnc(C(=O)N2CCc3[nH]cnc3C2c2nc3ccccc3[nH]2)s1 (stereo not drawn) as the compound, how does the AC50 read?
Answer: Its AC50 is 1000 to 5000 nM.

Question: How did the AC50 turn out when O=C(c1nncs1)N1CCc2[nH]cnc2C1c1nc2ccccc2[nH]1 (stereo not drawn) was run?
Answer: The AC50 was > 5000 nM.

Question: For Cc1nnc(N2CC(C(=O)N3CCc4[nH]cnc4[C@H]3c3nc4ccccc4s3)C2)o1 (single isomer, unassigned), which AC50 is on record?
Answer: The AC50 was > 5000 nM.

Question: For Cc1c(C(=O)N2CCc3[nH]cnc3[C@H]2c2nc3c(F)cccc3s2)cnn1C (single isomer, unassigned), which AC50 is on record?
Answer: Its AC50 is 1000 to 5000 nM.
